Assay results from patent publication US11214594B2, “Antimicrobial peptide having synergistic antibacterial effect with antibiotics on multidrug resistant bacteria, and use thereof” (priority 2016, dated 2022).
Like-named read-outs stand apart in the source and are kept apart here. Where a SMILES comes first, the peptide text is derived from it. [ ]: non-standard residue; d: D form.

Key:
A. baumannii [1] = test: MIC of antibiotic during combined treatment with antimicrobial peptide; assay type: cell-based, Acinetobacter baumannii; details: A. baumannii
Outline: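 Antibiotic diluted in MH medium, dispensed per well with peptide; setup repeated with roles reversed; MIC read per combination.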

E. coli = assay type: cell-based, Escherichia coli; details: E. coli
Outline: (§1)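 Antibiotic MIC came from antibiotic dilutions added to bacteria (2×10^6 CFU/ml, MH medium) already combined with peptide serially diluted 2:1 from its own MIC. Swapping the roles of the two agents gave the peptide MIC.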

MDREC 1229 = assay type: cell-based, Escherichia coli
Outline: as §1

A. baumannii [2] = test: MIC of antimicrobial peptide during combined treatment with antibiotic; assay type: cell-based, Acinetobacter baumannii
Outline: as §1

MDRAB 12035 = test: as above; assay type: cell-based, Acinetobacter baumannii
Outline: as §1

[3] = combined with peptide at 2 μg/ml
[4] = combined with peptide at 4 μg/ml
[5] = combined with peptide at 6 μg/ml
[6] = combined with peptide at 8 μg/ml
[7] = combined with peptide at 16 μg/ml
[8] = combined with peptide at 32 μg/ml
[9] = combined with peptide at 64 μg/ml
[10] = linezolid 64 μg/ml (Conc./MIC 1/8)
[11] = linezolid 512 μg/ml (Conc./MIC 1)
[12] = vancomycin 512 μg/ml (Conc./MIC 1/2)
[13] = vancomycin 1024 μg/ml (Conc./MIC 1)
[14] = erythromycin 4 μg/ml (Conc./MIC 1/8)
[15] = erythromycin 8 μg/ml (Conc./MIC 1/4)
[16] = erythromycin 16 μg/ml (Conc./MIC 1/2)
[17] = erythromycin 32 μg/ml (Conc./MIC 1)

**Q.** Which “Antibiotic MIC, Erythromycin” value (A. baumannii [1]; [3]) does the source give for CC[C@H](C)[C@H](NC(=O)[C@H](CCCCN)NC(=O)[C@H](Cc1c[nH]c2ccccc12)NC(=O)[C@@H](N)CCCNC(=N)N)C(=O)N[C@@H](Cc1ccccc1)C(=O)N[C@@H](CCCCN)C(=O)N[C@@H](CCCCN)C(=O)N[C@H](C(=O)N[C@H](CCCCN)C(=O)N[C@@H](CCCCN)C(=O)N[C@@H](CC(C)C)C(=O)N[C@@H](CC(C)C)C(=O)N[C@@H](Cc1c[nH]cn1)C(=O)N[C@@H](CCCCN)C(=O)N[C@@H](Cc1ccccc1)C(=O)N[C@@H](CCCCN)C(=O)N[C@@H](CCCCN)C(=O)N[C@@H](Cc1ccccc1)C(N)=O)[C@@H](C)CC [PapMA-17, RWK IFK KIk KLL HKF KKF-NH2] (H-RWKIFKKI[dK]KLLHKFKKF-NH2; N-terminus assumed) here?
**A.** 16 µg/mL

**Q.** And the “Antibiotic MIC, Linezolid” value (A. baumannii [1]; [3])?
**A.** 64 µg/mL

**Q.** And the “Antibiotic MIC, Vancomycin” value (A. baumannii [1]; [3])?
**A.** >128 µg/mL

**Q.** What about the “Antibiotic MIC, Erythromycin” value (A. baumannii [1]; [4]) of the same molecule?
**A.** 8 µg/mL

**Q.** What about the “Antibiotic MIC, Linezolid” value (A. baumannii [1]; [4]) of the same molecule?
**A.** 32 µg/mL

**Q.** And the “Antibiotic MIC, Vancomycin” value (A. baumannii [1]; [4])?
**A.** 64 µg/mL

**Q.** What about the “Antibiotic MIC, Erythromycin” value (A. baumannii [1]; [5]) of the same molecule?
**A.** 2 µg/mL

**Q.** And the “Antibiotic MIC, Linezolid” value (A. baumannii [1]; [5])?
**A.** 32 µg/mL

**Q.** And the “Antibiotic MIC, Vancomycin” value (A. baumannii [1]; [5])?
**A.** 32 µg/mL

**Q.** And the “Antibiotic MIC, Erythromycin” value (A. baumannii [1]; [6])?
**A.** 0.25 µg/mL

**Q.** And the “Antibiotic MIC, Linezolid” value (A. baumannii [1]; [6])?
**A.** 8 µg/mL

**Q.** And the “Antibiotic MIC, Vancomycin” value (A. baumannii [1]; [6])?
**A.** 16 µg/mL

**Q.** What about the “Antibiotic MIC, Erythromycin” value (A. baumannii [1]; [7]) of the same molecule?
**A.** 0.125 µg/mL

**Q.** What about the “Antibiotic MIC, Linezolid” value (A. baumannii [1]; [7]) of the same molecule?
**A.** 2 µg/mL

**Q.** What about the “Antibiotic MIC, Vancomycin” value (A. baumannii [1]; [7]) of the same molecule?
**A.** 4 µg/mL

**Q.** What about the “Antibiotic MIC, Erythromycin” value (A. baumannii [1]; [8]) of the same molecule?
**A.** 0 µg/mL

**Q.** And the “Antibiotic MIC, Linezolid” value (A. baumannii [1]; [8])?
**A.** 0 µg/mL

**Q.** What about the “Antibiotic MIC, Vancomycin” value (A. baumannii [1]; [8]) of the same molecule?
**A.** 0 µg/mL

**Q.** And the “Antibiotic MIC, Erythromycin” value (A. baumannii [1]; [9])?
**A.** 0 µg/mL

**Q.** What about the “Antibiotic MIC, Linezolid” value (A. baumannii [1]; [9]) of the same molecule?
**A.** 0 µg/mL

**Q.** And the “Antibiotic MIC, Vancomycin” value (A. baumannii [1]; [9])?
**A.** 0 µg/mL

**Q.** What about the “Peptide MIC” value (E. coli; with Erythromycin […] (Conc./MIC 1)) of the same molecule?
**A.** 0 µg/mL

**Q.** What about the “Peptide MIC” value (E. coli; with Linezolid […] (Conc./MIC 1)) of the same molecule?
**A.** 0 µg/mL

**Q.** What about the “Peptide MIC” value (E. coli; with Vancomycin 1024 μg/ml (Conc./MIC 1)) of the same molecule?
**A.** 0 µg/mL

**Q.** What about the “Peptide MIC during treatment with antibiotic” value (MDREC 1229; erythromycin 32 μg/ml (Conc./MIC 1/8)) of the same molecule?
**A.** 2 µg/mL

**Q.** What about the “Peptide MIC during treatment with antibiotic” value (MDREC 1229; erythromycin 64 μg/ml (Conc./MIC 1/4)) of the same molecule?
**A.** 2 µg/mL

**Q.** And the “Peptide MIC during treatment with antibiotic” value (MDREC 1229; erythromycin […] (Conc./MIC 1))?
**A.** 0 µg/mL

**Q.** And the “Peptide MIC during treatment with antibiotic” value (MDREC 1229; erythromycin […] (Conc./MIC 1/2))?
**A.** 2 µg/mL

**Q.** What about the “Peptide MIC during treatment with antibiotic” value (MDREC 1229; [10]) of the same molecule?
**A.** 4 µg/mL

**Q.** What about the “Peptide MIC during treatment with antibiotic” value (MDREC 1229; [11]) of the same molecule?
**A.** 0 µg/mL

**Q.** And the “Peptide MIC during treatment with antibiotic” value (MDREC 1229; linezolid […] (Conc./MIC 1/2))?
**A.** 1 µg/mL

**Q.** And the “Peptide MIC during treatment with antibiotic” value (MDREC 1229; linezolid […] (Conc./MIC 1/4))?
**A.** 4 µg/mL

**Q.** What about the “Peptide MIC during treatment with antibiotic” value (MDREC 1229; [12]) of the same molecule?
**A.** 2 µg/mL

**Q.** What about the “Peptide MIC during treatment with antibiotic” value (MDREC 1229; [13]) of the same molecule?
**A.** 1 µg/mL

**Q.** And the “Peptide MIC during treatment with antibiotic” value (MDREC 1229; vancomycin […] (Conc./MIC 1/4))?
**A.** 4 µg/mL

**Q.** What about the “Peptide MIC during treatment with antibiotic” value (MDREC 1229; vancomycin […] (Conc./MIC 1/8)) of the same molecule?
**A.** 8 µg/mL

**Q.** What about the “Peptide MIC during treatment with antibiotic” value (A. baumannii [2]; [14]) of the same molecule?
**A.** 4 µg/mL

**Q.** And the “Peptide MIC during treatment with antibiotic” value (A. baumannii [2]; [15])?
**A.** 4 µg/mL

**Q.** What about the “Peptide MIC during treatment with antibiotic” value (A. baumannii [2]; [16]) of the same molecule?
**A.** 2 µg/mL

**Q.** And the “Peptide MIC during treatment with antibiotic” value (A. baumannii [2]; [17])?
**A.** 0 µg/mL

**Q.** What about the “Peptide MIC during treatment with antibiotic” value (A. baumannii [2]; linezolid 32 μg/ml (Conc./MIC 1/8)) of the same molecule?
**A.** 4 µg/mL

**Q.** What about the “Peptide MIC during treatment with antibiotic” value (A. baumannii [2]; linezolid 64 μg/ml (Conc./MIC 1/4)) of the same molecule?
**A.** 2 µg/mL

**Q.** And the “Peptide MIC during treatment with antibiotic” value (A. baumannii [2]; linezolid […] (Conc./MIC 1))?
**A.** 0 µg/mL

**Q.** And the “Peptide MIC during treatment with antibiotic” value (A. baumannii [2]; linezolid […] (Conc./MIC 1/2))?
**A.** 2 µg/mL

**Q.** What about the “Peptide MIC during treatment with antibiotic” value (A. baumannii [2]; [12]) of the same molecule?
**A.** 0.25 µg/mL

**Q.** And the “Peptide MIC during treatment with antibiotic” value (A. baumannii [2]; [13])?
**A.** 0 µg/mL

**Q.** And the “Peptide MIC during treatment with antibiotic” value (A. baumannii [2]; vancomycin […] (Conc./MIC 1/4))?
**A.** 0.5 µg/mL

**Q.** And the “Peptide MIC during treatment with antibiotic” value (A. baumannii [2]; vancomycin […] (Conc./MIC 1/8))?
**A.** 4 µg/mL

**Q.** And the “Peptide MIC during treatment with erythromycin” value (MDRAB 12035; [14])?
**A.** 4 µg/mL

**Q.** What about the “Peptide MIC during treatment with erythromycin” value (MDRAB 12035; [15]) of the same molecule?
**A.** 4 µg/mL

**Q.** And the “Peptide MIC during treatment with erythromycin” value (MDRAB 12035; [16])?
**A.** 2 µg/mL

**Q.** What about the “Peptide MIC during treatment with erythromycin” value (MDRAB 12035; [17]) of the same molecule?
**A.** 0 µg/mL

**Q.** What about the “Peptide MIC during treatment with linezolid” value (MDRAB 12035; [10]) of the same molecule?
**A.** 4 µg/mL

**Q.** And the “Peptide MIC during treatment with linezolid” value (MDRAB 12035; [11])?
**A.** 0 µg/mL

**Q.** And the “Peptide MIC during treatment with linezolid” value (MDRAB 12035; linezolid […] (Conc./MIC 1/2))?
**A.** 1 µg/mL

**Q.** And the “Peptide MIC during treatment with linezolid” value (MDRAB 12035; linezolid […] (Conc./MIC 1/4))?
**A.** 2 µg/mL

**Q.** What about the “Peptide MIC during treatment with vancomycin” value (MDRAB 12035; [12]) of the same molecule?
**A.** 2 µg/mL

**Q.** And the “Peptide MIC during treatment with vancomycin” value (MDRAB 12035; [13])?
**A.** 1 µg/mL

**Q.** And the “Peptide MIC during treatment with vancomycin” value (MDRAB 12035; vancomycin […] (Conc./MIC 1/4))?
**A.** 4 µg/mL

**Q.** What about the “Peptide MIC during treatment with vancomycin” value (MDRAB 12035; vancomycin […] (Conc./MIC 1/8)) of the same molecule?
**A.** 4 µg/mL
